Measurements taken from US11208642B2, “Microbial syringol utilization” (Alliance for Sustainable Energy, LLC, priority 2018, dated 2021).

Columns and labels:
[1] = target: T1, GcoA-F169A (Amycolatopsis sp., UniProt P0DPQ7, F169A/H210Q); experiment: Rate of aromatic substrate disappearance by discontinuous HPLC; format: biochemical; settings: GcoA-F169A/GcoB, substrate disappearance over time
T1 construct: GST (N, cleaved yes); made in house; host or cells: E. coli Rosetta 2 (DE3)
Description: To address whether guaiacol and/or syringol would serve as substrates of GcoA-F169A, the disappearance of NADH (UV/vis) and aromatic substrate (HPLC) was monitored over time (FIG. 1). The rates of organic substrate and NADH consumption were robust and the same within error, regardless of whether guaiacol or syringol was used (5.3±0.3 μM guaiacol s^−1 μmol GcoA-F169A^−1, 5.8±0.8 μM NADH s^−1 μmol GcoA-F169A-1; 4.1±0.3 μM syringol s^−1 μmol GcoA-F169A^−1, 5.1±0.8 μM NADH s^−1 μmol GcoA-F169A^−1).
HPLC for product identification and specific activity measurement. HPLC was used to verify the O-demethylated product of GcoA-F169A GcoA/GcoB with guaiacol, syringol, or 3MC. In addition, discontinuous HPLC was used to determine the specific activity of aromatic […] disappearance.
Analyte analysis of the above end-point reactions (100 μM guaiacol, syringol, or 3MC, or 200 μM syringol) was performed on an Agilent 1100 LC system (Agilent Technologies) equipped with a G1315B diode array detector (DAD). Each sample and standard was injected at a volume of 10 μL onto a Symmetry C18 column 5 μm, 4.6×150 mm column (Waters). The column temperature was maintained at 30° C. and the buffers used to separate the analytes of interest was 0.01% TFA in water (A)/acetonitrile (B). The separation was carried out using a gradient program of: (A)=99% and (B)=1% at time t=0 min; (A)=99% and (B)=1% at time t=2 min, (A)=50% and (B)=50% at t=8 min; (A)=1% and (B)=99% at t=8.01 min; (A)=99% and (B)=1% at t=10.01 min; (A)=99% and (B)=1% at t=11 min. The flow rate was held constant at 1.5 mL min^−1, resulting in a run time of 11 minutes. DAD wavelengths of 210 and 325 nm were used for analysis of the analytes of interest. […] Integrated intensities vs [standards] were plotted and the resulting standard curves used to quantify the reactants and products.
For specific activity determination, 300 μM guaiacol, syringol, or 3MC were added from 0.1 M DMSO stocks to air saturated buffer (25 mM HEPES, 50 mM NaCl, pH 7.5), with a final volume of 1 mL. The concentration of analyte was measured via the above HPLC method. […]

[2] = target: T2, GcoA-F169A and GcoB (Amycolatopsis sp., UniProt P0DPQ7, F169A/H210Q); experiment: Uncoupling reactions: H2O2 by Amplex Red/HRP assay referenced to NADH consumed; format: biochemical
T2 construct: GST (N, cleaved yes); made in house; host or cells: E. coli Rosetta 2 (DE3)
Description: The ^a in Table 3 notes that 0.2 μM GcoA-F169A and GcoB were reacted with 100 μg catalase, 100 or 200 μM NADH, and 100 μM substrate in 25 mM HEPES, 50 mM NaCl, pH 7.5, 25° C., 210 μM O2. Endpoint analyses were done to quantify formaldehyde produced, which was then referenced to NADH consumed. The ^b in Table 3 notes that the same reaction done above was repeated to quantify H2O2 produced using the Amplex Red/HRP assay. The amount of hydrogen peroxide was then referenced to NADH consumed.
Detection of H2O2 via HRP and Amplex Red assay. A colorimetric assay involving horseradish peroxidase (HRP) and Amplex Red was used to quantify H2O2 in the reaction between GcoA-F169A GcoA/GcoB, NADH and guaiacol, syringol, or 3MC.
Detection of H2O2 via horseradish peroxidase (HRP) and Amplex Red assay. The reaction between 100 μM guaiacol or 3MC with 0.2 μM F169A/GcoB and 100 μM NADH in air-saturated buffer (25 mM HEPES, 50 mM NaCl, pH 7.5) was monitored continuously in a quartz cuvette, using the NADH consumption assay described above. The same thing was done for syringol, but with either 100 or 200 μM NADH. When there was no longer any change in the spectra, e.g., the reaction was completed, 100 μL was removed from the cuvette and pipetted into a 96-well microplate. A 5 mL solution containing 50 μL of 10 mM Amplex Red (prepared in DMSO and stored at −20° C.) and 100 μL of 10 U/mL HRP was made up in the above buffer. One hundred μL of this was added to each of the wells with each reaction sample. The plate was incubated in the dark at room temperature for 30 min, at which point the absorbance at 572 nm was recorded by a Varioskan Lux microplate reader (Thermo Scientific). The absorbance was compared to a standard curve with 0-100 μM H2O2 to quantify the amount of peroxide produced in the reactions.

T2 sequence (P0DPQ7 whole entry F169A/H210Q): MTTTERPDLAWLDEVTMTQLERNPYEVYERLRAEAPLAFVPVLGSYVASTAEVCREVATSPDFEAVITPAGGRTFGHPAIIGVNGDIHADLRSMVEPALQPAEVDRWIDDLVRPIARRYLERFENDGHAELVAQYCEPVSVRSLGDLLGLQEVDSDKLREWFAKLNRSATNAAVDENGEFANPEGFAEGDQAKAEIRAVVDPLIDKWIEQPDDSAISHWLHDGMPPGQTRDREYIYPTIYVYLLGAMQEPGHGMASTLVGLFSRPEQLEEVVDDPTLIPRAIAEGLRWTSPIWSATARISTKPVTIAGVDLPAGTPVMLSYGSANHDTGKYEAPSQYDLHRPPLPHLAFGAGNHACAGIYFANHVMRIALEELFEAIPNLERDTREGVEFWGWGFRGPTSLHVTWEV
T1 sequence (P0DPQ7 whole entry F169A/H210Q): as above

Row | Structure (SMILES) | Rate of organic substrate consumption (HPLC) [1] | % H2O2 produced ([2]; 100 μM substrate + 100 μM NADH) [%] | % H2O2 produced ([2]; 100 μM substrate + 200 μM NADH) [%]
1 | COc1cccc(OC)c1O [syringol, 2,6-dimethoxyphenol] | 4.1±0.3 μM s^−1 μmol GcoA-F169A^−1 | 7.4 ± 0.03 | 7.9 ± 0.5
2 | COc1ccccc1O [guaiacol, 2-methoxyphenol] | 5.3±0.3 μM s^−1 μmol GcoA-F169A^−1 | 3.7 ± 0.6 | 
3 | COc1cccc(O)c1O [3MC, 3-methoxycatechol] | 2.6±0.3 μM s^−1 μmol GcoA-F169A^−1 | 17 ± 0.2 | 
